Assay results: patent US6835755B1, “Naphthoquinone derivatives and their use in the treatment and control of tuberculosis” (priority 1999, dated 2004)
≈ marks a conversion by molar mass, not a printed value.

Tested on: resistant strains of Mycobacterium tuberculosis
Assay: microbe, parasite or virus in culture
Assay type: cell-based
Conditions: for ΔGI values of plant extracts: at MIC, mean ± s.d.

Row | Compound | ΔGI values of plant extracts (Two drug (isoniazid and rifampicin) resistant strain CCKO28469V) | MIC (Minimal inhibitory concentration) (Two drug (isoniazid and rifampicin) resistant strain CCKO28469V, radiometric method) | ΔGI values of plant extracts (2 drug resistant strain (res. to isoniazid and rifampicin)) | ΔGI values of plant extracts (3 drug resistant strain (res. to streptomycin, isoniazid and ethambutol)) | MIC (3 drug resistant strain (res. to streptomycin, isoniazid and ethambutol), radiometric method) | ΔGI values of plant extracts (4 drug resistant strain (res. to streptomycin, isoniazid, rifampicin and ethambutol)) | MIC (4 drug resistant strain (res. to streptomycin, isoniazid, rifampicin and ethambutol), radiometric method) | ΔGI values of plant extracts (5 drug resistant strain (res to isoniazid, streptomycin, rifampicin, thiacetazone and cyclocerine)) | MIC (5 drug resistant strain (res to isoniazid, streptomycin, rifampicin, thiacetazone and cyclocerine), radiometric method) | ΔGI values of plant extracts (6 drug resistant strain (res. to isoniazid, rifampicin, ethionamide, terizidone, thiacetazone and ofloxacin)) | MIC (6 drug resistant strain (res. to isoniazid, rifampicin, ethionamide, terizidone, thiacetazone and ofloxacin), radiometric method) | ΔGI values of plant extracts (7 drug resistant strain (res to isoniazid, streptomycin, ethambutol, kanamycin, rifampicin, and ethionamide)) | MIC (7 drug resistant strain (res to isoniazid, streptomycin, ethambutol, kanamycin, rifampicin, and ethionamide), radiometric method) | MIC (Mycobacterium tuberculosis)
1 | Cc1cc(O)c2c(c1)C(=O)C=CC2=O [7-methyljuglone, 5-hydroxy-7-methyl-1,4-naphtoquinone] | 0 ± 0 | 50 µg/mL (≈ 266 µM) |  |  |  |  |  |  |  |  |  |  |  | 
2 | Cc1cc(O)c2c(c1)C(=O)C(c1c(C)cc3c(c1O)C(=O)C=CC3=O)=CC2=O [diospyrin, 5,5′ dihydroxy 7,7′ binaphthoquinone] |  |  | 3.5 mg/mL | 4 ± 2.12 mg/mL | 100 µg/mL (≈ 267 µM) | 5 ± 2.82 mg/mL | 100 µg/mL (≈ 267 µM) | 10 ± 1.41 mg/mL | 100 µg/mL (≈ 267 µM) | 9 ± 2.82 mg/mL | 100 µg/mL (≈ 267 µM) | 13.5 ± 3.2 mg/mL | 100 µg/mL (≈ 267 µM) | 100 µg/mL (≈ 267 µM)
